Experimental data: patent US9493468B2, “Antifungal 5,6-dihydro-4H-pyrrolo[1,2-a][1,4]benzo-diazepines and 6H-pyrrolo[1,2-a][1,4]benzodiazepines substituted with heterocyclic derivatives” (Janssen Pharmaceutica NV, priority 2011, dated 2016)

How the values were obtained:
Assay type in all cases: cell-based
[1] = test system: Microsporum canis; assay: Antifungal activity in vitro, resazurin growth inhibition: Microsporum canis (B68128)
Procedure: (§1) The standard susceptibility screen is performed in 96-well plates (U-bottom, Greiner Bio-One). Serial dilutions (2-fold or 4-fold) of 20 mM compound stock solutions are made in 100% DMSO, followed by an intermediate dilution step in water. These serial dilutions (10 μl) are then spotted onto test-plates that can be stored in the dark at 4° C. for a maximum period of 2 weeks. An adequate broad dose-range is included with 64 μM as the highest in-test concentration. The culture medium RPMI-1640 is supplemented with L-glutamine, 2% glucose and buffered with 3-(N-morpholino)-propanesulfonic acid (MOPS) at pH 7.0±0.1.
(§2) The different fungal species/isolates (Table 3a) are cryopreserved and 1/1000 diluted in medium just prior to use. A standard inoculum of 200 μl containing 10^3 colony-forming unit (cfu) is then added to each well. A positive control (100% growth=fungal culture without antifungal) and a negative control (0% growth ═RPMI-MOPS medium) are included on each plate. Optimal incubation time and temperature are dependent on the fungal species and vary from 24 h for yeasts (37° C.) to one week or more for dermatophytes (27° C.). Inhibition of fungal growth is measured after adding 10 μl of 0.005% (w/v) resazurin (Sigma Aldrich) to each well, based on the principle that living cells convert the non-fluorescent blue resazurin into the pink and fluorescent resorufin, allowing fluorimetric reading (λex 550 nm and λem 590 nm) after an additional incubation period (‘resa’ time mentioned in Table 3a).

[2] = test system: Trichophyton mentagrophytes; assay: Antifungal activity in vitro, resazurin growth inhibition: Trichophyton mentagrophytes (B70554)
Procedure: as §1, §2

[3] = test system: Trichophyton rubrum; assay: Antifungal activity in vitro, resazurin growth inhibition: Trichophyton rubrum (B68183)
Procedure: as §1, §2

[4] = test system: Sporothrix schenkii; assay: Antifungal activity in vitro, resazurin growth inhibition: Sporothrix schenkii (B62482)
Procedure: as §1, §2

[5] = test system: Aspergillus fumigatus; assay: Antifungal activity in vitro, resazurin growth inhibition: Aspergillus fumigatus (B42928)
Procedure: as §1, §2

[6] = test system: Candida parapsilosis; assay: Antifungal activity in vitro, resazurin growth inhibition: Candida parapsilosis (B66126)
Procedure: as §1, §2

[7] = test system: Cryptococcus neoformans; assay: Antifungal activity in vitro, resazurin growth inhibition: Cryptococcus neoformans (B66663)
Procedure: as §1, §2

Row | Compound | Inf. B: Microsporum canis B68128, pIC50 [1] | Inf. G: Trichophyton mentagrophytes B70554, pIC50 [2] | Inf. C: Trichophyton rubrum B68183, pIC50 [3] | Inf. A: Sporothrix schenkii B62482, pIC50 [4] | Inf. E: Aspergillus fumigatus B42928, pIC50 [5] | Inf. D: Candida parapsilosis B66126, pIC50 [6] | Inf. F: Cryptococcus neoformans B66663, pIC50 [7]
1 | Cl.FC(F)(F)c1ccc(C2NCc3c(Cl)cccc3-n3cccc32)nn1 (racemic) [Compound 28] | 4.29 | 4.28 | 4.43 | <4.19 | <4.19 | <4.19 | <4.19
2 | Cl.c1ccc2c(c1)CNC(c1cc3ccccc3o1)c1cccn1-2 (racemic) [Compound 29] | 5.30 | 5.30 | 5.70 | <4.19 | <4.19 | <4.19 | 4.80
3 | Cl.Clc1cc(Cl)c2c(c1)-n1cccc1C(c1cc3ccccc3o1)NC2 (racemic) [Compound 31] | 5.59 | 4.87 | 5.31 | <4.19 | <4.19 | <4.19 | <4.19
4 | Cc1cccc2c1CNC(c1cc3ccccc3o1)c1cccn1-2.Cl (racemic) [Compound 32] | 5.70 | 5.70 | 6.10 | 4.35 | <4.19 | <4.19 | 4.39
5 | Cc1cccc2c1-n1cccc1C(c1cc3ccccc3o1)NC2.Cl (racemic) [Compound 33] | 5.22 | 4.98 | 4.49 | <4.19 | <4.19 | <4.19 | 4.38
6 | Cl.Clc1ccc2oc(C3NCc4c(Cl)cccc4-n4cccc43)cc2c1 (racemic) [Compound 35] | 5.70 | 5.70 | 6.07 | <4.19 | <4.19 | <4.19 | <4.19
7 | Cc1cccc2oc(C3NCc4c(Cl)cccc4-n4cccc43)cc12.Cl (racemic) [Compound 36] | 5.19 | 5.21 | 5.10 | <4.19 | <4.19 | <4.19 | <4.19
8 | Cc1cccc2oc(C3NCc4ccc(Cl)cc4-n4cccc43)cc12.Cl (racemic) [Compound 37] | 4.38 | 4.41 | 5.31 | <4.19 | <4.19 | <4.19 | 5.39
9 | Cc1ccc2cc(C3NCc4ccccc4-n4cccc43)oc2c1.Cl (racemic) [Compound 38] | 5.15 | 5.22 | 5.22 | 4.40 | 4.41 | <4.19 | <4.19
10 | Cc1ccc2cc(C3NCc4c(Cl)cccc4-n4cccc43)oc2c1.Cl (racemic) [Compound 39] | 5.52 | 5.15 | 5.15 | 5.52 | 5.52 | <4.19 | <4.19
11 | Cc1ccc2cc(C3NCc4c(C)cccc4-n4cccc43)oc2c1.Cl (racemic) [Compound 40] | 5.52 | 4.47 | 4.77 | <4.19 | <4.19 | <4.19 | <4.19
12 | Cc1ccc2cc(C3NCc4c(Cl)cc(Cl)cc4-n4cccc43)oc2c1.Cl (racemic) [Compound 41] | <4.19 | <4.19 | 4.80 | <4.19 | <4.19 | <4.19 | <4.19
13 | COc1cccc2cc(C3NCc4ccc(Cl)cc4-n4cccc43)oc12.Cl (racemic) [Compound 42] | 4.19 | 4.49 | 5.06 | <4.19 | <4.19 | <4.19 | 4.89
14 | COc1cccc2cc(C3NCc4c(Cl)cc(Cl)cc4-n4cccc43)oc12.Cl (racemic) [Compound 43] | 4.52 | <4.19 | 4.30 | <4.19 | <4.19 | <4.19 | <4.19
15 | COc1ccc2oc(C3NCc4c(Cl)cccc4-n4cccc43)cc2c1.Cl (racemic) [Compound 44] | 5.31 | 4.77 | 5.20 | <4.19 | <4.19 | <4.19 | <4.19
16 | COc1ccc2oc(C3NCc4ccc(Cl)cc4-n4cccc43)cc2c1.Cl (racemic) [Compound 45] | 5.32 | <4.19 | 5.09 | 4.80 | <4.19 | <4.19 | 4.62
17 | COc1ccc2oc(C3NCc4c(Cl)cc(Cl)cc4-n4cccc43)cc2c1.Cl (racemic) [Compound 46] | 5.12 | <4.19 | <4.19 | <4.19 | <4.19 | <4.19 | <4.19
